Results published in patent publication EP0819136B1, “MDP DERIVATIVES AND CONJUGATES HAVING HAEMATOPOIETIC FUNCTION STIMULATING ACTIVITY, AND COMPOSITIONS CONTAINING SAME” (VACSYN S.A., priority 1995, dated 1996).

Experiments:
[1] = test system: myélocytes circulants; assay: Circulating myelocytes 24 h after 4 daily oral administrations of AZT and/or Muradimétide (Example 4, Table 3); type: in vivo, souris; settings: for Nbre de myélocytes circulants: 24 h after 4 daily administrations
Experimental: Le tableau 3 ci-dessous et la figure 11 indiquent l'effet d'un traitement per os des souris avec du Muradimétide avant, en même temps ou après l'AZT administré à 50 mg par kg, sur le nombre de myélocytes circulants testés 24 heures après 4 administrations quotidiennes. Tableau 3
Le nombre moyen de myélocytes circulant avant le traitement se situe entre 3 et 15 X 10^4 cellules par ml dans les 5 groupes.
La « P-value » a été calculée par le test Mann Whitney U Rank.
NS signifie que la différence n'est pas significative. Ce tableau confirme que l'augmentation des myélocytes circulants est d'environ 200 quand il y a effet conjoint de l'AZT et du Muradimétide. Les deux constituants de la combinaison ont été administrés per os soit simultanément soit à des temps séparés.

[2] = test system: leucocytes circulants normaux (majoritairement neutrophiles et lymphocytes) et immatures (myélocytes); assay: Circulating blood cell counts in mice after 4 consecutive days of i.v. Muradimétide alone (Example 1); type: in vivo, souris; settings: for Nbre de Leucocytes / Nbre de Lymphocytes / Nbre de Myélocytes / Nbre de Neutrophiles: Muradimétide 25 mg/kg i.v., 4 consecutive days
Experimental: Le tableau 1 ci-dessous représente les numérations des leucocytes, neutrophiles, lymphocytes et myélocytes en fonction du temps après traitement par le Muradimétide seul administré à la dose de 25 mg/kg. Le traitement est effectué pendant 4 jours consécutifs par injection intraveineuse.
Effet de 4 jours de traitement consécutifs des souris par voie veineuse avec le Muradimétide (25 mg/kg) sur les modifications du nombre de leucocytes circulants normaux (majoritairement neutrophiles et lymphocytes) et immatures (myélocytes).

[3] = test system: neutrophiles, leucocytes et myélocytes; assay: Blood cell counts in mice given i.v. AZT 40 mg/kg plus Muradimétide i.v. or p.o. (Example 2); type: in vivo, souris CDI mâles
Experimental: Le traitement par l'AZT seul induit classiquement une diminution du nombre des leucocytes et des neutrophiles circulants. Cette diminution est suivie par une reconstitution intervenant environ 4 à 7 jours après le début du traitement. Quand le Muradimétide a été administré par voie générale ou par la voie orale après un traitement par 40 mg/kg d'AZT, il n'y a pas de baisse du nombre de cellules et au contraire il y a une multiplication par au moins 1,5 du nombre de leucocytes et un triplement de celui des neutrophiles et cela dès après 4 jours. Les résultats sont représentés dans le tableau 2 ci-dessous.
Des souris CDI mâles (5 par groupe) ont été injectées avec de l'AZT à la dose de 40 mg par kg aux jours 0 à 3. Le Muradimétide est administré les mêmes jours à la dose de 10 mg par kg en intraveineux ou de 50 mg par kg per os. Les comptages cellulaires sont réalisés au jour 0 (avant le traitement), et aux jours 3 et 4. Tableau 2

[4] = test system: myélocytes circulants; assay: Circulating myelocytes during two weeks of oral treatment, 4 days per week (Example 4, figure 11); type: in vivo, souris; settings: p.o. days 0, 1, 2, 3 and 7, 8, 9, 10; MDM 25 mg/kg, AZT 50 mg/kg or both
Experimental: La figure 11 représente l'effet d'un traitement per os de souris pendant deux semaines consécutives (4 jours par semaine) avec l'AZT, le Muradimétide ou le mélange des deux sur le nombre des myélocytes circulants.
La figure 11 montre l'effet d'un traitement par le MDM à 25 mg/kg (X), de l'AZT à 50 mg/kg (O) et du mélange des deux (□) sur le comptage des myélocytes de souris traitées pendant 2 semaines aux jours 0, 1, 2, 3 de la première semaine et 7, 8, 9, 10 de la deuxième semaine. […] Si l'effet est surtout marqué au niveau de la première semaine, cela montre que le traitement nécessite un certain espace de temps entre les différents cycles de traitement et que des traitements répétés pourraient, le cas échéant, être utiles.

[5] = AZT 40 mg/kg i.v. days 0-3 + Muradimétide i.v. 10mg/kg days 0-3, day 0 (before treatment)
[6] = AZT 40 mg/kg i.v. days 0-3 + Muradimétide i.v. 10mg/kg days 0-3, day 3
[7] = AZT 40 mg/kg i.v. days 0-3 + Muradimétide i.v. 10mg/kg days 0-3, day 4
[8] = AZT 40 mg/kg i.v. days 0-3 + Muradimétide p.o 50 mg/Kg days 0-3, day 0 (before treatment)
[9] = AZT 40 mg/kg i.v. days 0-3 + Muradimétide p.o 50 mg/Kg days 0-3, day 3
[10] = AZT 40 mg/kg i.v. days 0-3 + Muradimétide p.o 50 mg/Kg days 0-3, day 4
[11] = Muradimétide by general or oral route after AZT 40 mg/kg, after 4 days

COC(=O)CC[C@@H](NC(=O)[C@H](C)NC(=O)[C@@H](C)O[C@H]1[C@H](O)[C@@H](CO)OC(O)[C@@H]1NC(C)=O)C(=O)OC (stereo partly drawn) [Muradimétide, Nac-Mur-L-Ala-D-Glu-[OCH3]-OCH3]
Nbre de myélocytes circulants ([1]; AZT 50mg/Kg p.o. at 0 h + Muradimetide 25mg/Kg p.o. at 0 h): 215 ± 51 x 10^4/ml | Nbre de myélocytes circulants ([1]; AZT 50mg/Kg p.o. at 0 h + Muradimetide 25mg/Kg p.o. at -4 h): 194 ± 50 x 10^4/ml | Nbre de myélocytes circulants ([1]; AZT 50mg/Kg p.o. at -4 h + Muradimetide 25mg/Kg p.o. at 0 h): 187 ± 42 x 10^4/ml | Nbre de myélocytes circulants ([1]; Muradimetide 25mg/Kg p.o. alone at 0 h): 17 ± 15 x 10^4/ml | augmentation des myélocytes circulants ([1]; joint effect of AZT 50 mg/kg and Muradimétide 25 mg/kg p.o., simultaneously or at separate times): ~200 | Nbre de Leucocytes ([2]; day 0): 50 ± 14° x 10^5/ml | Nbre de Lymphocytes ([2]; day 0): 38±12 x 10^5/ml | Nbre de Myélocytes ([2]; day 0): 7 ± 6 x 10^4/ml | Nbre de Neutrophiles ([2]; day 0): 11±3 x 10^5/ml | Nbre de Leucocytes ([2]; day 2): 52±12 x 10^5/ml | Nbre de Lymphocytes ([2]; day 2): 41 ± 17 x 10^5/ml | Nbre de Myélocytes ([2]; day 2): 8±8 x 10^4/ml | Nbre de Neutrophiles ([2]; day 2): 10±3 x 10^5/ml | Nbre de Leucocytes ([2]; day 3): 52 ± 17 x 10^5/ml | Nbre de Lymphocytes ([2]; day 3): 35 ± 13 x 10^5/ml | Nbre de Myélocytes ([2]; day 3): 40±5 x 10^4/ml | Nbre de Neutrophiles ([2]; day 3): 13 ± 5 x 10^5/ml | Nbre de Leucocytes ([2]; day 4): 52 ± 15 x 10^5/ml | Nbre de Lymphocytes ([2]; day 4): 34 ± 8 x 10^5/ml | Nbre de Myélocytes ([2]; day 4): 72 ± 27 x 10^4/ml | Nbre de Neutrophiles ([2]; day 4): 12 ± 4 x 10^5/ml | Nbre de Leucocytes ([2]; day 7): 50±13 x 10^5/ml | Nbre de Lymphocytes ([2]; day 7): 38±10 x 10^5/ml | Nbre de Myélocytes ([2]; day 7): 4 ± 4 x 10^4/ml | Nbre de Neutrophiles ([2]; day 7): 12±4 x 10^5/ml | nombre de myélocytes circulants (result in words) ([2]; Muradimétide alone 25 mg/kg i.v., days 3 and 4): augmentation du nombre de myélocytes circulants qui est hautement significative | pourcentage de myélocytes ou de promyélocytes (result in words) ([3]; AZT 40 mg/kg i.v. + Muradimétide, whatever the route of administration): augmentation spectaculaire | Leucocytes [3, 5]: 6.0 ± 3.4 x 10^6/ml | Myelocytes [3, 5]: 5 ± 7 x 10^4 /ml | Neutrophiles [3, 5]: 2.0 ± 1.3 x 10^6 /ml | Leucocytes [3, 6]: 5.9 ± 2.9 x 10^6/ml | Myelocytes [3, 6]: 145 ± 83 x 10^4 /ml | Neutrophiles [3, 6]: 1.5 ± 0.8 x 10^6 /ml | Leucocytes [3, 7]: 7.6 ± 1.6 x 10^6/ml | Myelocytes [3, 7]: 117 ± 46 x 10^4 /ml | Neutrophiles [3, 7]: 4.6 ±1.5 x 10^6 /ml | Leucocytes [3, 8]: 4.8 ± 0.4 x 10^6/ml | Myelocytes [3, 8]: 14 ± 13 x 10^4 /ml | Neutrophiles [3, 8]: 1.4 ± 0.5 x 10^6 /ml | Leucocytes [3, 9]: 6.1 ± 1.4 x 10^6/ml | Myelocytes [3, 9]: 123 ± 55 x 10^4 /ml | Neutrophiles [3, 9]: 1.6 ± 0.5 x 10^6 /ml | Leucocytes [3, 10]: 8.1 ± 2.9 x 10^6/ml | Myelocytes [3, 10]: 138 ± 59 x 10^4 /ml | Neutrophiles [3, 10]: 4.3 ± 2.47 x 10^6 /ml | multiplication du nombre de leucocytes [3, 11]: ≥ 1,5 | nombre de neutrophiles (fold change) [3, 11]: triplement | effet sur la mobilisation des CHS (comptage des myélocytes) [4]: effet significatif
